MIC data for 7 molecules are collected here from ChEMBL document CHEMBL1136488, “Antibacterial and antiproliferative activity of cationic fullerene derivatives” (2003).

Converted amounts (≈) assume the structure as drawn.

Assay [1] has as its system Staphylococcus aureus. The experiment in a line: Antibacterial activity against […] resistant Staphylococcus aureus M133 (MRSA). The assay is classed as functional.
Assay [2] concerns Staphylococcus aureus. Kind of assay: Antibacterial activity against Staphylococcus aureus 209P JC-1. The assay is classed as functional.
Another assay deals with Enterococcus hirae. Kind of assay: Antibacterial activity against Enterococcus hirae ATCC 8043. The assay is classed as functional.
The subject of assay [3] is Staphylococcus epidermidis. Kind of assay: Antibacterial activity against Staphylococcus epidermidis ATCC 14990. The assay is classed as functional.
For assay [4], the system named is Staphylococcus aureus. The experiment in a line: Antibacterial activity against […] resistant Staphylococcus aureus M126 (MRSA). The assay is classed as functional.
Another assay relates to Enterococcus faecium. Kind of assay: Antibacterial activity against vancomycin resistant Enterococcus faecium vanA (VRE). The assay is classed as functional.
Assay [5] has as its system Enterococcus faecalis. Kind of assay: Antibacterial activity against vancomycin resistant Enterococcus faecalis NCTC 12201 (VRE). The assay is classed as functional.
Assay [6] relates to Enterococcus faecalis. Kind of assay: Antibacterial activity against Enterococcus faecalis W-73. The assay is classed as functional.
In assay [7] the test system is Enterococcus faecalis. The experiment in a line: Antibacterial activity against Enterococcus faecalis W-73.

For `C[N+]1(C)CC23c4c5c6c7c8c9c%10c%11c%12c%13c%14c%15c%16c%17c%18c%19c%20c(c2c2c4c4c6c6c8c%10c8c%12c%10c%14c(c%15%19)c%12c%20c2c2c4c6c8c%10c%122)C%18C2c4c6c8c%10c(c4-%17)C%16C%13C%114C[N+](C)(C)CC%104C=9C8C7C5=C6C23C1.[I-].[I-]` (centres undefined), the MIC was 1.56 µg/mL in the assay on Staphylococcus aureus [1]; 0.78 µg/mL with Staphylococcus aureus [2]; 6.25 µg/mL with Enterococcus hirae; 3.12 µg/mL in assay [3]; 1.56 µg/mL in the assay with Staphylococcus aureus [4]; 6.25 µg/mL with Enterococcus faecium. In addition, the MIC against Enterococcus faecalis [5] was determined as 3.12 µg/mL; with Enterococcus faecalis [6] it was 6.25 µg/mL.

Regarding `CCCCC1C23C4=c5c6c7c8c9c%10c%11c%12c%13c%14c%15c%16c%17c%18c%19c%20c%21c%22c%23c(c5c5c6c6c8c%11c8c%11c%12c%15c%12c(c%20%16)c%21c%15c%23c5c(c68)c%15c%12%11)C2(C[N+]1(C)C)C%22C%19c1c-%18c2c5c(c13)C4C7C9=C5C1(C2C%17%14)C(CCCC)[N+](C)(C)CC%10%131.[I-].[I-]` (centres undefined), the MIC with Staphylococcus aureus [1] is 6.25 µg/mL; against Staphylococcus aureus [2], 6.25 µg/mL; with Enterococcus hirae, 6.25 µg/mL; in assay [3], 6.25 µg/mL; in the assay with Staphylococcus aureus [4], 6.25 µg/mL; in the assay with Enterococcus faecium, 12.5 µg/mL. Further, the MIC in the assay on Enterococcus faecalis [5] and in the assay with Enterococcus faecalis [6] was 6.25 µg/mL each time.

Regarding `C[N+]1(C)CC23C4=C5C6=C7C8C9=c%10c%11c%12c%13c%14c%15c%16c%17c%18c%19c%20c%21c%22c%23c(c4c4c2c2c%24c%25c(c%10c(c%11%15)c%10c%16c%19c(c%25%10)c%10c%20c%23c4c%24%10)C2C9C73C1)C1C%22=C2c3c(c6c(c-%13c3C(C%14%17)C23C[N+](C)(C)CC%21%183)C%128)C51.[I-].[I-]` (centres undefined), the minimum inhibitory concentration (MIC) in the assay on Staphylococcus aureus [1] was found to be 0.78 µg/mL; with Staphylococcus aureus [2] it was 1.56 µg/mL; in the assay on Enterococcus hirae, 12.5 µg/mL; in assay [3], 6.25 µg/mL; against Staphylococcus aureus [4] it was 3.12 µg/mL; in the assay on Enterococcus faecium it was 12.5 µg/mL. Besides, the MIC in the assay on Enterococcus faecalis [5] and against Enterococcus faecalis [6] was 12.5 µg/mL throughout.

Consider `CCCCCCCCCC1C23C4=C5c6c7c8c9c(c%10c%11c%12c%13c%14c%15c%16c%17c%18c%19c%20c%21c%22c%23c%24c(c6c6c8c8c%25c9c%11c%14c%25c9c%15c%18c%11c(c%23%19)c%24c6c8c%119)C5C%22c5c4c4c6c(c5-%21)C(C%20%17)C5(C6=C%12C%10C42)C(CCCCCCCCC)[N+](C)(C)CC%13%165)C73C[N+]1(C)C.[I-].[I-]` (centres undefined), for which the MIC (in the assay on Staphylococcus aureus [2]; in the assay on Enterococcus hirae; in [3]; with Enterococcus faecium; against Enterococcus faecalis [5]; in the assay with Enterococcus faecalis [6]) was over 100 µg/mL in each case.

Take `C[N+]1(C)CC23c4c5c6c7c8c9c%10c%11c%12c%13c%14c%15c%16c%17c%18c%19c%20c%21c(c2c2c4c4c6c9c6c4c4c2c%21c2c%19c(c%18%14)c9c%13c%10c6c9c24)C2=C4c6c(c-%16c9c%10c6C(C5C7=C%10C5(C[N+](C)(C)CC8%115)C9C%15%12)C43C1)C%17C2%20.[I-].[I-]` (centres undefined): the MIC in the assay with Staphylococcus aureus [1] worked out at 3.12 µg/mL; against Staphylococcus aureus [2], 3.12 µg/mL; with Enterococcus hirae, 6.25 µg/mL; in [3], 3.12 µg/mL; against Staphylococcus aureus [4], 3.12 µg/mL; against Enterococcus faecium, 6.25 µg/mL. For the same molecule, the MIC in the assay with Enterococcus faecalis [5] and in the assay with Enterococcus faecalis [6] was 6.25 µg/mL in each case.

As for `CCCCCCC1C23C4=c5c6c7c8c9c%10c%11c%12c%13c%14c%15c%16c%17c%18c%19c%20c%21c%22c%23c(c5c5c6c6c8c%11c8c%11c%12c%15c%12c(c%20%16)c%21c%15c%23c5c(c68)c%15c%12%11)C2(C[N+]1(C)C)C%22C%19c1c-%18c2c5c(c13)C4C7C9=C5C1(C2C%17%14)C(CCCCCC)[N+](C)(C)CC%10%131.[I-].[I-]` (centres undefined), the MIC in the assay on Staphylococcus aureus [1] came to 12.5 µg/mL; in the assay on Staphylococcus aureus [2], 6.25 µg/mL; in the assay on Enterococcus hirae, 25 µg/mL; in [3], 12.5 µg/mL; with Enterococcus faecalis [7], 50 µg/mL; in the assay on Staphylococcus aureus [4] it was 12.5 µg/mL. Moreover, the MIC against Enterococcus faecium was determined as 12.5 µg/mL; in the assay on Enterococcus faecalis [5], 25 µg/mL.

Turning to `CN[C@H](CC(C)C)C(=O)N[C@H]1C(=O)N[C@@H](CC(N)=O)C(=O)N[C@H]2C(=O)N[C@H]3C(=O)N[C@H](C(=O)N[C@H](C(=O)O)c4cc(O)cc(O)c4-c4cc3ccc4O)[C@H](O)c3ccc(c(Cl)c3)Oc3cc2cc(c3O[C@@H]2O[C@H](CO)[C@@H](O)[C@H](O)[C@H]2O[C@H]2C[C@](C)(N)[C@H](O)[C@H](C)O2)Oc2ccc(cc2Cl)[C@H]1O` [VANCOMYCIN], the MIC with Staphylococcus aureus [1] is 1.56 µg/mL (≈ 1.08 µM); against Staphylococcus aureus [2] it was 1.56 µg/mL (≈ 1.08 µM); against Enterococcus hirae, 3.12 µg/mL (≈ 2.15 µM); in assay [3], 3.12 µg/mL (≈ 2.15 µM); against Staphylococcus aureus [4], 1.56 µg/mL (≈ 1.08 µM); against Enterococcus faecium it was over 100 µg/mL. The values for the MIC in the assay with Enterococcus faecalis [5] and against Enterococcus faecalis [6] were over 100 µg/mL and 3.12 µg/mL (≈ 2.15 µM), respectively.

As usually defined, the MIC is the lowest concentration found to suppress growth.
